Measured values taken from patent US10865188B2, “Dibenzo azepine compounds and their use in the treatment of otic diseases and disorders” (Pipeline Therapeutics, Inc., priority 2015, dated 2020).
Read-outs that look alike come from different tables or passages of the source.

How the values were obtained:
HES5 = test: Human neural stem cell assay, Hes5 gene expression (real-time PCR); format: cell-based; details: human neural stem cells, 7 point CRC, read-out: hNSC HES5 IC50
Method: (§1) Neural stem cells (NSC) were derived from embryonic stem cells using a published protocol (Yuan et al., Mar. 2, 2011, PLoS ONE, 6(3):e17540). Cells were sorted and characterized at passage 3 and were expanded. Cells were then frozen at passage 5. Cells were maintained in NSC media (DMEM/F12, N2 (1×), B27(1×) (Invitrogen), and Pen/Strep (1×) (Life Technologies) with 20 ng/ml bFGF (BD Bioscience/Corning)). On day 1, cells were plated in 96 well plates that have been previously coated with poly-ornithin and laminin, 60,000 cells/well in 100 μl of media. On day 2, spent media was removed, and 180 μl of fresh media was added to the cells. Later that same day (day 2), cells were treated with 20 μl of NSC media containing test compounds (7 point CRC). On day 3, spent media was removed and 140 μl of RLT/bME was added to the cells. RNA was extracted using the QiaCube (Qiagen®, Germantown, Md., USA) using the total RNA extraction+DNAse protocol. RNA was then reverse-transcribed to cDNA using iScript (Bio-Rad, Hercules, Calif., USA). cDNA was then used for real-time PCR analysis using iTaq Sybergreen (BioRad). Expression of Atoh1, Hes5, Hes1, Myosin7a genes was evaluated using CFX96 or CFX384 (Bio-Rad). HPRT1 was used as a reference gene. Analysis was done using Microsoft® Excel® and CBIS (ChemInnovation Software, Inc., San Diego, Calif., USA). […]

mice = test: Auditory brainstem response (ABR) hearing threshold; format: in vivo; details: formulations of Examples 3(c) and 3(d) (2% w/v crystalline, poloxamer 407)
Method: Surgery was performed on naïve mice or mice with noise or pharmacologically-damaged ears. The animals were anesthetized with isoflurane and an 8 mm retroauricular incision was made to the lower caudal edge of the pinna. The skin was retracted and the fatty tissue was blunt dissected away from where the facial nerve and muscle come together. The muscle was retracted to reveal an area in the tympanic bulla where the bone was thin. A 30 g needle was used to drill a hole in the exposed thin portion of the otic bulla. A Hamilton syringe equipped with a 32 g blunt needle was inserted into the opening of the otic bulla. The drug formulation was delivered by injection and the needle removed. Wound closure was made with tissue glue.
Naïve mice or mice at various times after either noise or pharmacological deafening were anesthetized with ketamine/xylazine/acepromazine and the auditory brainstem response was determined in both ears using a Tucker Davis (Alachua, Fla.) RZ6 apparatus. The mice were exposed to clicks or pure tones of 4, 8, 16, 24 and 32 kHz at 90-10 dB in 10 dB descending steps and the hearing threshold was determined.

[1] = Guinea pig PK after transtympanic delivery (perilymph and cochlea, LC/MS/MS); format: in vivo; details: for concentration at 1 day / concentration at 7 day / concentration at 14 day / concentration at 28 day / concentration at 42 day / concentration at 56 day: male, Hartley, other: transtympanic, 30 μL, 30 μL transtympanic; for concentration at 1 day: Day 1, LLOQ = 0.08 μM; for concentration at 7 day: Day 7, LLOQ = 0.08 μM; for concentration at 14 day: Day 14, LLOQ = 0.08 μM; for concentration at 28 day: Day 28, LLOQ = 0.08 μM; for concentration at 42 day: Day 42, LLOQ = 0.08 μM; for concentration at 56 day: Day 56, LLOQ = 0.08 μM
Description: (§2) Male Hartley guinea pigs (300-350 g) were anesthetized with ketamine and xylazine. Thirty microliters of an aqueous pharmaceutical composition of the instant embodiments was delivered transtympanically to deposit the drug to the round window membrane. Delivery was unilateral. The animals were placed in a warm chamber in a lateral recumbent position keeping the dosed ear side up until they recover from anesthesia.
At various timepoints after administration, the animals were euthanized by CO2 inhalation. Blood and CSF were collected and stored at −80° C. The animals were decapitated, the temporal bones removed and the bulla opened to expose the otic capsule. Ipsilateral and contralateral perilymph were collected from the apex using a microcapillary tube. The ipsilateral cochlea was removed from the otic capsule and stored at −80° C. All tissues collected were analyzed using LC/MS/MS for test compound concentration as follows. Analytical standards were prepared by spiking known concentrations of the test compound stock solutions into matrices such as plasma or artificial CSF. Fixed amounts of tissues collected and spiked standards were precipitated with acetonitrile containing buspirone as an internal standard. The precipitated samples were centrifuged at 4000 g for 10 minutes at 4° C. The supernatants were analyzed using LC-MS/MS. The LC-MS/MS system was set up using the AB Sciex 4000 Qtrap (AB Sciex, Framingham, Mass.) equipped with Agilent 1200 series HPLC and CTC PAL Autosampler (Agilent Technologies, Santa Clara, Calif.).
Liquid compositions described herein were evaluated using the method described in Part E of the Biological Function section provided above. The liquid compositions prepared as described in Example 5(a)-5(d) were each drawn into a 1 mL syringe. Using the filled 1 mL syringe, the liquid composition was back-filled at 5° C. into a 100 μL Hamilton syringe adapted with 28 gauge needle. The Hamilton syringe was then allowed to warm to room temperature.
as §2, with “the above liquid” for “an aqueous pharmaceutical”, “were” for “of the instant embodiments was”, “The delivery” for “Delivery”, “recovered” for “recover”
At various timepoints after administration, the animals were euthanized by CO2 inhalation. Blood and cerebrospinal fluid were collected and stored at −80° C. The animals were decapitated, the temporal bones removed and the bulla were opened to expose the otic capsule. Ipsilateral and contralateral perilymph were collected from the apex using a microcapillary tube. The ipsilateral cochlea was removed from the otic capsule and was stored at −80° C. All tissues collected were analyzed using LC/MS/MS as described in Part E of the Biological Function section above.
The concentrations of Compound I and Compound II were measured using LC/MS/MS in both the perilymph fluid and the cochlea tissue after a transtympanic injection of an instant formulation of either the crystalline form or the amorphous form at various time points. […] Concentration of the instant compounds in the perilymph and/or cochlea tissue was above the human NSC EC50 for Atoh1, an indicator that the subject compounds may be efficacious in hair cell regeneration and hearing restoration in human. […] Table 3 below lists the results for the studies using aqueous formulations of crystalline Compound I while Table 4 below lists those for aqueous formulations of crystalline Compound II. The results for aqueous formulations of crystalline Compound I are also graphically shown in FIG. 5A and FIG. 5B while the results for aqueous formulations of crystalline Compound II are graphically shown in FIG. 6A and FIG. 6B.

Atoh1 = test: Human neural stem cell assay, Atoh1 gene expression (real-time PCR); format: cell-based; details: human neural stem cells, 7 point CRC, read-out: hNSC Atoh1 EC50
Method: as §1

[2] = cochlea, Amorphous form (Example 5(d)), read-out: Cochlea Average concentration
[3] = cochlea, Crystalline form (Example 5(c)), read-out: Cochlea Average concentration
[4] = perilymph, Amorphous form (Example 5(d)), read-out: perilymph Average concentration
[5] = perilymph, Crystalline form (Example 5(c)), read-out: Perilymph Average concentration

IC50 (HES5): 23 nM
concentration at 1 day [1, 2]: 829 µM
concentration at 7 day [1, 2]: 18.1 µM
concentration at 14 day [1, 2]: 0 µM
concentration at 28 day [1, 2]: 0 µM
concentration at 1 day [1, 3]: 5280 µM
concentration at 7 day [1, 3]: 46.1 µM
concentration at 14 day [1, 3]: 222 µM
concentration at 28 day [1, 3]: 7.6 µM
concentration at 42 day [1, 3]: 0.6 µM
concentration at 56 day [1, 3]: 0 nM
concentration at 1 day [1, 4]: 159 µM
concentration at 7 day [1, 4]: 178 µM
concentration at 14 day [1, 4]: 0 µM
concentration at 28 day [1, 4]: 0 µM
concentration at 1 day [1, 5]: 502 µM
concentration at 7 day [1, 5]: 26 µM
concentration at 14 day [1, 5]: 26 µM
concentration at 28 day [1, 5]: 2.2 µM
concentration at 42 day [1, 5]: 0.3 µM
concentration at 56 day [1, 5]: 0 nM
exposure to the inner ear, crystalline formulation versus respective amorphous formulation ([1]; transtympanic, formulations of Example 5(a)-5(d)): longer exposure
EC50 (Atoh1): 23 nM
Compound: CN1C(=O)[C@@H](NC(=O)[C@](C)(F)C(=O)NCC(F)(F)C(F)(F)F)c2ccccc2-c2ccccc21 [Compound II, (2R)-2-fluoro-2-methyl-N—[(S)-5-methyl-6-oxo-6,7-dihydro-5H-dibenzo[b,d]azepin-7-yl]-N′-(2,2,3,3,3-pentafluoropropyl)malonamide]
ABR Threshold Improvement (mice; 16 kHz): 8 dB
ABR Threshold Improvement (mice; 24 kHz): 11 dB
ABR Threshold Improvement (mice; 32 kHz): 7 dB
concentration in the perilymph and the cochlea compared with the human NSC EC50 for Atoh1 ([1]; dosed as the amorphous form, transtympanic): above the human NSC EC50 for Atoh1 at 1 day and 7 days
concentration in the perilymph and the cochlea compared with the human NSC EC50 for Atoh1 ([1]; dosed as the crystalline form, transtympanic): above the human NSC EC50 Atoh1 from day 1 to day 42
